Assay results: patent US9464301B2, “Increased isoprene production using the archaeal lower mevalonate pathway” (Danisco US Inc., priority 2008, dated 2016)
“Also recorded” adds a separate entry of the source.

Legend:
human MVK polypeptide = human MVK polypeptide (Homo sapiens, UniProt Q03426); conditions: reported; cited from earlier work
yeast mevalonate kinase = molecular target: T1, yeast mevalonate kinase (Saccharomyces cerevisiae, UniProt P07277); format: biochemical; conditions: for KMapp of yeast mevalonate kinase: other substrate saturating at 5 mM, 30° C.
T1 construct: 10xHis tag with factor Xa site (pET-16b leader); made in house; host or cells: E. coli BL21(DE3) pLysS
T1 sequence (P07277 1-443): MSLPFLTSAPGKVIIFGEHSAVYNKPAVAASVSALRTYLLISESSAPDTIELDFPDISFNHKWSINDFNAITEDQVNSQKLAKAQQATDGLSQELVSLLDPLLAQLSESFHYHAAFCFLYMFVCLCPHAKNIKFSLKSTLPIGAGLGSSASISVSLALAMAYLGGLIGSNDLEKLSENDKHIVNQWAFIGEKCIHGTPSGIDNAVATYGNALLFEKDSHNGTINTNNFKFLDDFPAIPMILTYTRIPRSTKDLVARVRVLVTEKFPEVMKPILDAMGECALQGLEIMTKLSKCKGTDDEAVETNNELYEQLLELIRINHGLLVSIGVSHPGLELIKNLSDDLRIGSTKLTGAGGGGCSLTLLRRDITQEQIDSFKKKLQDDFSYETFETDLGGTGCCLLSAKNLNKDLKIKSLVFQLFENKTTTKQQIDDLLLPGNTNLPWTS

[1] = molecular target: T2, MVK from the archaeon Methanococcus jannaschii (Methanocaldococcus jannaschii, UniProt Q58487); conditions: Huang et al. 1999; cited from earlier work
T2 sequence (Q58487 1-312): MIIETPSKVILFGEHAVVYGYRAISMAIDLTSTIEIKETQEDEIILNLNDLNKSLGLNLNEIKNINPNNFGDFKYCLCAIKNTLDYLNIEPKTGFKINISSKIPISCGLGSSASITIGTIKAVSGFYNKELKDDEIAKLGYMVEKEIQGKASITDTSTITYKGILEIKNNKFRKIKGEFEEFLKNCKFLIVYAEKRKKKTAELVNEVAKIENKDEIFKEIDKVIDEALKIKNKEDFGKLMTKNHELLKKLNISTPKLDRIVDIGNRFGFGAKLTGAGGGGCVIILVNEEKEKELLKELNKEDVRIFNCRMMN

M. mazei MVK = experiment: Inhibition of MVK by diphosphomevalonate and IP, two enzyme system; format: biochemical, Methanosarcina mazei; conditions: 1 μM MVK; for Inhibition of M. mazei MVK by isopentenyl monophosphate: 100 μM
Description: This experiment investigates the inhibitory effect of diphosphomevalonate and […] (IP) on MVK activity using MVK enzymes from S. pneumoniae, yeast, and M. mazei, respectively. […] All chemical reagents were purchased from Sigma unless otherwise specified.

yeast MVK = molecular target: T3, yeast MVK (Saccharomyces cerevisiae, UniProt P07277); experiment: Inhibition of MVK by diphosphomevalonate, two enzyme system (MVK plus PMK); format: biochemical; conditions: 1 μM MVK, 1 μM PMK, diphosphomevalonate formed in situ
T3 construct: 10xHis tag with factor Xa site (pET-16b leader); made in house; host or cells: E. coli BL21(DE3) pLysS
T3 sequence (P07277 1-443): T1 sequence (P07277 1-443)
Experimental: (§1) This experiment investigates the inhibitory effect of diphosphomevalonate and […] (IP) on MVK activity using MVK enzymes from S. pneumoniae, yeast, and M. mazei, respectively. […] All reactions were performed in 96-well plates and were monitored by absorbance at 386 nm on a Molecular Devices Spectramax 190 UV-Vis 96-well spectrophotometer. […] All chemical reagents were purchased from Sigma unless otherwise specified. Yeast and M. mazei MVK were obtained as described above and S. pneumoniae MVK and yeast phosphomevalonate kinase (PMK) were obtained as previously described (Andreassi et al., Biochemistry, 43:16461-66, 2004) from pDW02 in pET200D MVK (FIG. 142).

S. pneumoniae MVK = experiment: as above; format: biochemical, Streptococcus pneumoniae; conditions: 1 μM MVK, 1 μM PMK, diphosphomevalonate formed in situ
Experimental: as §1

[2] = about 1 atmosphere and about 60° F.; cited from earlier work
[3] = Flammability modeling (CAFT) and testing of isoprene; format: physicochemical
Description: Thus, computer modeling and experimental testing were used to determine the flammability limits of isoprene (such as isoprene in the presence of O2, N2, CO2, or any combination of two or more of the foregoing gases) in order to ensure process safety. The flammability envelope is characterized by the lower flammability limit (LFL), the upper flammability limit (UFL), the limiting oxygen concentration (LOC), and the limiting temperature. For a system to be flammable, a minimum amount of fuel (such as isoprene) must be in the presence of a minimum amount of oxidant, typically oxygen. The LFL is the minimum amount of isoprene that must be present to sustain burning, while the UFL is the maximum amount of isoprene that can be present. Above this limit, the mixture is fuel rich and the fraction of oxygen is too low to have a flammable mixture. The LOC indicates the minimum fraction of oxygen that must also be present to have a flammable mixture. […]
Calculated adiabatic flame temperatures (CAFT) along with a selected limit flame temperature for combustion propagation were used to determine the flammability envelope for isoprene. […]
The igniter was comprised of a 1.5 ohm nicrome coil and an AC voltage source on a timer circuit. Using an oscilloscope, it was determined that 34.4 VAC were delivered to the igniter for 3.2 seconds. […]

Sequence of human MVK polypeptide (Q03426 whole entry): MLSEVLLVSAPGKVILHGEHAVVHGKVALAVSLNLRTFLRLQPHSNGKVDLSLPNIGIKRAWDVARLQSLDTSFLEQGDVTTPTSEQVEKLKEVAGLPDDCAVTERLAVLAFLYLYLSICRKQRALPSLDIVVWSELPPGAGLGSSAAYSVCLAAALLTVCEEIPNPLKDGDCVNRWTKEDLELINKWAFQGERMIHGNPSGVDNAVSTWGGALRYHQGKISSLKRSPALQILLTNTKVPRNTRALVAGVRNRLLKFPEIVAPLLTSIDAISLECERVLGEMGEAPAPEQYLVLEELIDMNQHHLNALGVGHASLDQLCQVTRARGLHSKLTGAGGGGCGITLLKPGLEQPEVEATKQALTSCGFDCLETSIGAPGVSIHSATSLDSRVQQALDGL

In the case of `CC(C)=CCC/C(C)=C/CC/C(C)=C/CO[P@@](=O)(O)OP(=O)(O)O` (stereo in doubt) [FPP, farnesyl diphosphate], the “Ki for human MVK polypeptide” value (human MVK polypeptide) is listed as “nanomolar range”.

In the case of `Nc1ncnc2c1ncn2[C@@H]1O[C@H](COP(=O)(O)OP(=O)(O)OP(=O)(O)O)[C@@H](O)[C@H]1O` [ATP, adenosine triphosphate], the “KMapp of yeast mevalonate kinase” value (yeast mevalonate kinase) is reported as 714 ± 49 µM.

For `CC(C)=CCC/C(C)=C/CC/C(C)=C/CC/C(C)=C/COP(=O)(O)OP(=O)(O)O` [GGPP, geranylgeranyl diphosphate], the “Ki for human MVK polypeptide” value (human MVK polypeptide) is given as “nanomolar range”.

In the case of `CC(C)=CCC/C(C)=C/COP(=O)(O)OP(=O)(O)O` [GPP, geranyl diphosphate], the “Ki for human MVK polypeptide” value (human MVK polypeptide) is given as “nanomolar range” and the “Feedback inhibition of M. jannaschii MVK” value [1] is given as “feedback inhibited”.

For `C=C(C)CCOP(=O)(O)O` [IP, isopentenyl monophosphate], the “Inhibition of M. mazei MVK by isopentenyl monophosphate” value (M. mazei MVK) was “not inhibited”.

In the case of `C=C(C)CCOP(=O)(O)OP(=O)(O)O` [IPP, isopentenyl diphosphate], the “Inhibition of M. mazei MVK by isopentenyl monophosphate” value (M. mazei MVK) is reported as “not inhibited”.

For `C[C@@](O)(CCOP(=O)(O)OP(=O)(O)O)CC(=O)O` [diphosphomevalonate], the “Inhibition of yeast MVK by diphosphomevalonate” value (yeast MVK) was “not inhibited; also recorded: Neither yeast MVK nor M. mazei MVK was inhibited”, the “Inhibition of M. mazei MVK by diphosphomevalonate” value (M. mazei MVK; PMK, diphosphomevalonate formed in situ) was “proceed to completion; also recorded: Neither yeast MVK nor M. mazei MVK was inhibited” and the “Inhibition of S. pneumoniae MVK by diphosphomevalonate” value (S. pneumoniae MVK) was “inhibited”.

For `CCO` [ethanol], the LFL [2] is given as “about 3.3 vol %” and the LOC [2] is given as “about 8.7 vol %”.

With `C=CC(=C)C` [isoprene, 2-methyl-1,3-butadiene] the “limiting oxygen concentration (LOC)” value ([3]; isoprene, O2, N2, and CO2 mixture at 40° C. and 1 atmosphere) was 9.5 vol % and the limiting temperature ([3]; lowest temperature at which combustion can propagate) was “about −54 °C”.

In the case of `CC(O)(CCO)CC(=O)O` (stereo not shown) [mevalonate], the “KMapp of yeast mevalonate kinase” value (yeast mevalonate kinase) is reported as 131 ± 8 µM.

B1: yeast mevalonate kinase: mevalonate kinase from Saccharomyces cerevisiae, expressed in E. coli and purified to >95% (protein, UniProt P07277 1-443, looked up)
Mevalonate kinase: T1 sequence (P07277 1-443)
In the case of B1, the “turnover number (kcat)” value (yeast mevalonate kinase; yeast mevalonate kinase) is reported as 38 ± 5 s⁻¹.
